Values of other authors, collected in patent US20180169002A1, “Skin Rejuvenation and Defense Systems and Methods” (Maple Mountain Group, Inc., priority 2015, published 2018).

Settings: compared with glycerin

For `NC(=O)NCCO` [Hydroxyethyl Urea, Hydroxyethyl urea], the moisturization efficacy is listed as “comparable to the leading benchmark”.
